Tests used:
over 40 GPCR targets = assay: Counter screening over a panel of GPCR targets; type: binding; details: panel of over 40 GPCR proteins
EPAC1-ΔDEP (aa. 149-881) = molecular target: T1, EPAC1-ΔDEP (aa. 149-881) (Homo sapiens, UniProt O95398); assay: 8-NBD-cAMP competition binding assay, EPAC1-ΔDEP; details: eleven-point dose-response 1-100 µM; mean ± SEM
T1 construct: EPAC1-ΔDEP (149-881); GST (N); made in house; host or cells: Escherichia coli BL21 Star (DE3)
T1 sequence (O95398 149-881 isoform O95398-3): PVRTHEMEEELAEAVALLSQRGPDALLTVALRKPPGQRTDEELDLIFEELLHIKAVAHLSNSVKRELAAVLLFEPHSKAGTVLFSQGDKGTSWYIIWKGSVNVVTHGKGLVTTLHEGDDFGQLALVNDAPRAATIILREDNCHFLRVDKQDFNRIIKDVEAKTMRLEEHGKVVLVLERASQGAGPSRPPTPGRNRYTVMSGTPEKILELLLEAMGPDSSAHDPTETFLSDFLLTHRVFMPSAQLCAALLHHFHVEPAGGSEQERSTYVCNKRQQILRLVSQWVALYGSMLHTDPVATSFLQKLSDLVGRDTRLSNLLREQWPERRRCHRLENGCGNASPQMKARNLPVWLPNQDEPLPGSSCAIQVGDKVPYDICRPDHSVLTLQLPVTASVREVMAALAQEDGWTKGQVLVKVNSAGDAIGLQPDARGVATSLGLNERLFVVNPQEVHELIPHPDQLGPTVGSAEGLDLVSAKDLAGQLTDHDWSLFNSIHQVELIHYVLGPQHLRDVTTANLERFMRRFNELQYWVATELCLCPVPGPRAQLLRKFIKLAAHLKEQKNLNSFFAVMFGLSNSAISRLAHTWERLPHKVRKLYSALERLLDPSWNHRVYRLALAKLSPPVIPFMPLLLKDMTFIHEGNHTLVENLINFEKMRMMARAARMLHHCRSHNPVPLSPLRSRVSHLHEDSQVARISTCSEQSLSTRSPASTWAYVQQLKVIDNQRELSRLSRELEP
Description: Recombinant Protein Purification.
8-NBD-cAMP Competition Binding Assay.

EPAC1 [1] = molecular target: T2, EPAC1 (Homo sapiens, UniProt O95398); assay: EPAC1 immunoprecipitation with activation-selective antibody in HEK293T cells; type: cell-based; set-up: expressed in transfected cells; details: versus vehicle-treated control, FIG. 10
T2 sequence (O95398 1-923): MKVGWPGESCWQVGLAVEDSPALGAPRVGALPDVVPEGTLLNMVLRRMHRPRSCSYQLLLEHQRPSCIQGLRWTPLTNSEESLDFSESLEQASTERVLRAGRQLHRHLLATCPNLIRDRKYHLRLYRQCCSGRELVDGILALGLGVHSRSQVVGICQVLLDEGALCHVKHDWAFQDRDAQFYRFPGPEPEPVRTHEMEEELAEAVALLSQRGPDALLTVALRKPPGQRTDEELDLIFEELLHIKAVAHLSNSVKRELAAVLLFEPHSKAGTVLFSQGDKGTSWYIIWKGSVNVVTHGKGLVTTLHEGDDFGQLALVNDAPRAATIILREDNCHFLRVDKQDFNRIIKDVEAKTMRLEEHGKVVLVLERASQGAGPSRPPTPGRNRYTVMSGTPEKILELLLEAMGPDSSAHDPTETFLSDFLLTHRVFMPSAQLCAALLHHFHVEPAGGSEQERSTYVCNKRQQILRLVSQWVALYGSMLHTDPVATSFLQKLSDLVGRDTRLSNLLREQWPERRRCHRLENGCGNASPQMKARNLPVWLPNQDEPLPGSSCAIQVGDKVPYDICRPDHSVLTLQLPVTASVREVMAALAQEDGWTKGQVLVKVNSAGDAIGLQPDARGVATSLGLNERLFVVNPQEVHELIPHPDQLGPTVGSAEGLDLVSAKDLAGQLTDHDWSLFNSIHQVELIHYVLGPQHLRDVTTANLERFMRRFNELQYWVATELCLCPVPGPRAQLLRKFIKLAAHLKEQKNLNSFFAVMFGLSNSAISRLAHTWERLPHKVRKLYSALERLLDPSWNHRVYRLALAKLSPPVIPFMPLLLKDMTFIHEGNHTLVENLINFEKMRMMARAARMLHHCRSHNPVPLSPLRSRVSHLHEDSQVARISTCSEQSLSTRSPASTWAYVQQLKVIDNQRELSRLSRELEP
Experimental: FIG. 10. Ability of selected compounds to interact with EPAC1 in cells. HEK293T cells stably transfected with EPAC1 were treated with hit compounds from the screen. EPAC1 was immunoprecipitated from cell lysates using an activation-selective antibody, visualized by western blotting and its levels were quantified densitometrically. Cyclic nucleotide EPAC1 agonist 2 was used as positive control. […] Data from at least three independent experiments are presented in the bar graph as mean ± SEM with significant increases in immunoprecipitated EPAC1 levels in comparison to vehicle-treated control indicated; ^∗∗ p < 0.01, ^∗∗∗ p < 0.001.
SDS-PAGE and Western Blotting. Samples were prepared by mixing equal volumes of cell lysate and 2x SDS sample loading buffer and denaturing for 5 min at 95° C., unless indicated otherwise. Protein samples were separated by SDS-PAGE on 10% (v/v) polyacrylamide gels, for EPAC1 and VASP, or on 12.5% (v/v), for Rap1, and then transferred to nitrocellulose membranes. Membranes were then blocked for 1 h at room temperature in 5% (w/v) non-fat dry milk or 5% (w/v) BSA in Tris-buffered saline containing 0.1% (v/v) Tween 20, followed by an overnight incubation with primary antibody diluted in blocking buffer at 4° C. Subsequently, the membranes were incubated with appropriate horseradish peroxidase-conjugated secondary antibodies for 1 h at room temperature. For signal detection the SuperSignal West Pico PLUS Chemiluminescent Substrate (Thermo Scientific) was used. Images were acquired using the Fusion FX7 camera platform (Vilber). Densitometry was performed with ImageJ.

EPAC1 [2] = molecular target: T2, EPAC1; assay: Protein stability of EPAC1 in cells following long-term exposure; type: cell-based; set-up: expressed in transfected cells; host or cells: U2OS cells (from Professor Holger Rehmann, University of Utrecht); details: compared with I942

| IC50 (EPAC1-ΔDEP (aa. 149-881)) | SMILES | off-target effects towards GPCR proteins (over 40 GPCR targets) | EPAC1 immunoprecipitation with activation-selective antibody (EPAC1 [1]) | tolerability in terms of protein stability of EPAC1 in cells (EPAC1 [2]) |
| --- | --- | --- | --- | --- |
| 0.5 µM | COc1ccc2ccc(OCC(=O)NS(=O)(=O)c3ccc4ccccc4c3)cc2c1 [Compound 25q, 2-((7-Methoxynaphthalen-2-yl)oxy)-N-(naphthalen-2-ylsulfonyl)acetamide] | none of them displays the potential off-target effects | significant increases in EPAC1 immunoprecipitation |  |
| 4.9 µM | COc1ccc(S(=O)(=O)NC(=O)COc2ccc3ccccc3c2)c(OC)c1 [Compound 25g, N-((2,4-Dimethoxyphenyl)sulfonyl)-2-(naphthalen-2-yloxy)acetamide] |  | significant increases in EPAC1 immunoprecipitation |  |
| 0.6 µM | COc1ccc2ccc(OCC(=O)NS(=O)(=O)c3ccc(N)cc3OC)cc2c1 [Compound 25n, N-((4-Amino-2-methoxyphenyl)sulfonyl)-2-((7-methoxynaphthalen-2-yl)oxy)acetamide] | none of them displays the potential off-target effects | significant increases in EPAC1 immunoprecipitation | better tolerated |

Reference: patent publication US20230150929A1, “SELECTIVE NON-CYCLIC NUCLEOTIDE ACTIVATORS FOR THE CAMP SENSOR EPAC1” (The Board of Regents of The University of Texas System, priority 2020, published 2023)
